Measured values published in paper PMC8389922, “First-in-Class Cyclic Temporin L Analogue: Design, Synthesis, and Antimicrobial Assessment” (Journal of Medicinal Chemistry, 2021).
In brackets after ≈: the same amount, converted by molar mass. Bridge positions count the residues as written; N and C are the ends. Square brackets hold non-standard residues; d marks the D form. Peptide text beside a SMILES is read from it.

Legend:
[1] = CD spectroscopy, secondary structure content (DichroWeb); format: physicochemical; settings: for helix-1 (regular α-helix) / helix-2 (distorted α-helix) / random / β-strand-1 (regular β-strand) / β-strand-2 (distorted β-strand) / β-turn: peptide 50 μM, 25 °C
Procedure: The secondary structures of the linear peptide 9 and its stapled analogues 12, 17, and 24–26 were explored by circular dichroism (CD). CD spectroscopy studies were performed in water, and SDS or DPC micelles (20 mM) were used as mimics of the bacterial or mammalian membranes, respectively.[60]
The secondary structure content was predicted based on the CD spectra from 190 to 260 nm using the online server for protein secondary structure analyses, DichroWeb.[61] […] The hydrocarbon-bridged peptide 25 was slightly helical and structured in water, with weak ellipticity at 220 nm. Peptide 25 contains ∼13% regular helix and ∼10% distorted helix, according to the DichroWeb prediction.
All spectra were measured in the 260–190 nm spectral range, 1 nm bandwidth, 4 accumulations, and 100 nm/min scanning speed.[60] Each peptide was dissolved in water to prepare a 1 mM peptide stock solution. The CD spectra were performed in water, in SDS (20 mM) and in DPC (20 mM) using a peptide concentration of 50 μM. The secondary structure content of the peptides was predicted using the online server for protein secondary structure analyses DichroWeb.[61] Input and output units and the wavelength step were θ (mdeg) and 1.0 nm, respectively. The algorithm used was CONTIN-LL,[83] and reference database was set-7. When we have NRMSD > 0.100, we used the CDSSTR method.[83]

[2] = Peptide aggregation in LPS (ThT fluorescence); format: physicochemical; settings: peptide 20 μM, LPS 1 mg/mL, ThT 25 μM, 1 h incubation, ThT emission 482 nm
Procedure: The peptides were incubated with LPS (1 mg/mL) at a concentration of 20 μM, and ThT (25 μM) was used as a fluorophore to measure aggregation.
Figure 5 Aggregate formation in the interaction between peptides 9 (a), 12 (b), and 17 (c) (20 μM) and LPS (1 mg/mL) monitored by ThT fluorescence (25 μM). Peptide alone and ThT alone were used as controls.
After 1 h, we evaluated the peptide aggregation measuring ThT fluorescence emission at 482 nm (slit width, 5 nm) after excitation at 450 nm (slit width, 10 nm). ThT spectra at 25 μM, and peptide alone at 20 μM were carried out as control.

B. megaterium Bm11 = format: cell-based, Bacillus megaterium
Procedure, shortened: (§1)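 MICs were determined by broth microdilution, with bacteria at a final 1 × 10^6 CFU/mL and peptides tested from 100 to 0.78 μM.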

[3] = tested on: HaCaT cells (human immortalized keratinocytes); assay: Cytotoxicity, MTT assay; format: cell-based
Procedure: In particular, the cytotoxicity was evaluated by the 3-(4,5-dimethylthiazol-2-yl)-2,5-diphenyltetrazolium bromide (MTT) assay and is expressed as the percentage of viability of peptide-treated cells compared to that of untreated control cells. As expected, after 2 and 24 h treatments, the cell viability decreased in a concentration-dependent manner for all peptides (Figure 2).
Figure 2 Viability of peptide-treated HaCaT cells evaluated by MTT assay at 2 h (a) and 24 h (b). All data are expressed as a percentage with respect to the untreated control cells and are the mean of three independent experiments ± standard error of the mean (SEM).
The human immortalized keratinocytes HaCaT cells (AddexBio, San Diego, CA) were cultured in Dulbecco’s modified Eagle’s medium containing 4 mM glutamine (DMEMg), supplemented with 10% heat-inactivated fetal bovine serum (FBS) and 0.1 mg/mL of penicillin and streptomycin, at 37 °C and 5% CO2, in 25 or 75 cm^2 flasks.
The quantification of cell viability was performed by the in vitro MTT [3-(4,5-dimethylthiazol-2-yl)-2,5-diphenyltetrazolium bromide] assay, as previously reported,[77] measuring the conversion of the soluble yellow dye MTT to insoluble purple formazan by mitochondrial dehydrogenases. More precisely, 4 × 10^4 HaCaT cells, suspended in DMEMg supplemented with 2% FBS without antibiotics, were plated in each well of the 96-well plate. After overnight incubation at 37 °C and 5% CO2, the medium of each well was replaced by DMEMg containing the peptide at different concentrations, as indicated. Controls were HaCaT cells not treated with the peptide. After 2 and 24 h of incubation at 37 °C and 5% CO2, the medium was discarded; 0.5 mg/mL of MTT in Hank’s buffer was added to each well, and the plate was incubated for further 4 h. Acidified isopropanol was then added to dissolve formazan crystals, and the absorbance of each well at 570 nm was measured using a microplate reader (Infinite M200; Tecan, Salzburg, Austria). The purple color intensity is directly proportional to the number of viable cells, which was expressed as a percentage compared to that of untreated control cells (100%).

E. coli ATCC 25922 = format: cell-based, Escherichia coli
Procedure, shortened: as §1

[4] = CD in DPC micelles (20 mM), DichroWeb
[5] = CD in SDS micelles (20 mM), DichroWeb
[6] = CD in water, DichroWeb (CONTIN-LL, set-7; CDSSTR if NRMSD > 0.100)

| Structure (SMILES) | helix-1 (regular α-helix) [1, 4] [%] | helix-2 (distorted α-helix) [1, 4] [%] | random [1, 4] [%] | β-strand-1 (regular β-strand) [1, 4] [%] | β-strand-2 (distorted β-strand) [1, 4] [%] | β-turn [1, 4] [%] | helix-1 (regular α-helix) [1, 5] [%] | helix-2 (distorted α-helix) [1, 5] [%] | random [1, 5] [%] | β-strand-1 (regular β-strand) [1, 5] [%] | β-strand-2 (distorted β-strand) [1, 5] [%] | β-turn [1, 5] [%] | helix-2 (distorted α-helix) ([1]; CD in water, DichroWeb) [%] | random ([1]; CD in water, DichroWeb) [%] | β-strand-1 (regular β-strand) ([1]; CD in water, DichroWeb) [%] | β-strand-2 (distorted β-strand) ([1]; CD in water, DichroWeb) [%] | β-turn ([1]; CD in water, DichroWeb) [%] | helix-1 (regular α-helix) [1, 6] [%] | aggregation in the presence of LPS [2] | MIC B. megaterium Bm11 (B. megaterium Bm11) [µM] | other results |
| --- | --- | --- | --- | --- | --- | --- | --- | --- | --- | --- | --- | --- | --- | --- | --- | --- | --- | --- | --- | --- | --- |
| CC[C@H](C)[C@H](NC(=O)[C@H](CCCNC(=N)N)NC(=O)[C@@H]1CCC(=O)NCCCC[C@H](NC(=O)[C@H](Cc2ccccc2)NC(=O)[C@H](Cc2c[nH]c3ccccc23)NC(=O)[C@@H]2CCCN2C(=O)[C@@H](NC(=O)[C@@H](N)Cc2ccccc2)C(C)C)C(=O)N[C@@H](CCCCN)C(=O)N[C@@H](Cc2ccccc2)C(=O)N[C@H](CC(C)C)C(=O)N1)C(=O)N[C@@H](CC(C)C)C(N)=O [compound 12] (H-FVPWFKKF[dL]ERIL-NH2; lactam 6-10) | 54 | 21 | 13 | 1 | 4 | 7 | 58 | 24 | 5 | 0 | 3 | 10 | 2 | 55 | 18 | 8 | 15 | 0 | lowest aggregation | 1.56 (≈ 2.66 µg/mL) | helix percentage (total) in SDS solution ([1]; CD in SDS micelles (20 mM), DichroWeb, regular plus distorted helix): about 80%; HaCaT cell viability ([3]; 25 μM, same profile after either 2 or 24 h): 94%; HaCaT cell viability ([3]; 50 μM, same profile after either 2 or 24 h): 60%; MIC E. coli ATCC 25922 (E. coli ATCC 25922): 25 µM (≈ 42.6 µg/mL) |
| CC[C@H](C)[C@H](NC(=O)[C@H](CCCNC(=N)N)NC(=O)[C@@H]1CCCCn2cc(nn2)C[C@H](NC(=O)[C@H](Cc2ccccc2)NC(=O)[C@H](Cc2c[nH]c3ccccc23)NC(=O)[C@@H]2CCCN2C(=O)[C@@H](NC(=O)[C@@H](N)Cc2ccccc2)C(C)C)C(=O)N[C@@H](CCCCN)C(=O)N[C@@H](Cc2ccccc2)C(=O)NC(CC(C)C)C(=O)N1)C(=O)N[C@@H](CC(C)C)C(N)=O (stereo in doubt) [compound 17] | 38 | 18 | 19 | 9 | 7 | 10 | 32 | 16 | 16 | 13 | 7 | 15 | 4 | 49 | 19 | 9 | 16 | 2 | higher ability to aggregate | 1.56 (≈ 2.67 µg/mL) | HaCaT cell viability ([3]; 2 h treatment, 25 μM, vs untreated control, mean of three independent experiments): 60–70%; HaCaT cell viability ([3]; 2 h treatment, 50 μM, vs untreated control, mean of three independent experiments): less than 40%; HaCaT cell viability ([3]; 24 h treatment (sentence continues from 50 μM), vs untreated control): less than 20%; MIC E. coli ATCC 25922 (E. coli ATCC 25922): >100 µM |
